Laboratory results as given in PMC11484942, “Rumicidins are a family of mammalian host-defense peptides plugging the 70S ribosome exit tunnel” (Nature Communications, 2024).
Ends that are not written are not given here.

Columns and labels:
E. coli BW25113 = experiment: MIC broth microdilution; type: cell-based, Escherichia coli; settings: for Minimum inhibitory concentration MHB + 0.9% NaCl: Mueller-Hinton broth + 0.9% NaCl; for Minimum inhibitory concentration MHB + 0.9% NaCl / Minimum inhibitory concentration MHB: 24 h 37 °C, median of ≥3 experiments; for Minimum inhibitory concentration MHB: Mueller-Hinton broth without salt; for fold change of MIC vs wild-type rumicidin-1: N-terminal shortening
Protocol: The reduction of resazurin to resorufin was recorded.

[1] = test system: E. coli BL21 (DE3) Star cell extract; experiment: Cell-free protein synthesis (coupled transcription/translation) of EGFP; type: biochemical, Escherichia coli; settings: minimum concentration that provides >90% inhibition of the EGFP synthesis in the CFPS system
Protocol: To investigate the effects of AMPs and antibiotics on the coupled transcription/translation process, the test compounds were added to a cell-free protein synthesis (CFPS) reaction mix with a plasmid encoding enhanced green fluorescent protein (EGFP) variant (F64L, S65T, Q80R, F99S, M153T, and V163A) under control of the T7 promoter. The cell lysate was prepared using the E. coli BL21 Star (DE3) overexpressed T7 RNA polymerase as described previously. The reaction mix consisted of the following components: 1.2 mM ATP, 0.8 mM UTP, 0.8 mM GTP, 0.8 mM CTP, 2 mM of each of 20 proteinogenic amino acids, 1.5 mM spermidine, 1 mM putrescine dihydrochloride, 0.06647 mM calcium folinate, […] tRNA from the E. coli MRE 600 strain, 0.33 mM NAD, 120 mM HEPES-KOH (pH 8.0), 10 mM ammonium glutamate, 175 mM potassium glutamate, 60 mM glucose, 15 mM magnesium glutamate, 2% PEG 8000, 25% E. coli BL21 Star (DE3) cell lysate, 1 ng/ml plasmid DNA. The reaction volume was 50 µL. The peptides were dissolved in PBS with the addition of 0.1% BSA. Erythromycin was used in the positive control reactions. The fluorescence of the sample without inhibitor was set as the 100% value. The reaction proceeded for 2 h in 96-well v-bottom black polystyrene microplates (Eppendorf #0030601904) in a plate shaker (30 °C, 1000 rpm). The fluorescence of the synthesized EGFP was measured with the microplate reader AF2200 (λEx = 488 nm, λEm = 510 nm; Eppendorf). The experimental data were obtained from at least two independent experiments performed in triplicate. Non-linear regression curves were generated using GraphPad Prism v.8.0.1 (GraphPad Software Inc.).

[2] = test system: HEK293T (transformed embryonic kidney cells); experiment: MTT cytotoxicity; type: cell-based, human; settings: mean
Protocol: (§1) Hemolytic activity of the peptides was tested against the fresh suspension of human red blood cells (hRBC) using the hemoglobin release assay as described previously. Two experiments were performed with the hRBC from blood samples collected from healthy donors by certified medical personnel upon informed written consent. All procedures were approved by the Ethics Committee of the Institute of Experimental Medicine (protocol 1/20 of 2/27/2020) and comply with the ethical principles of the Declaration of Helsinki. The quantitative data were represented as average means with standard deviations. The colorimetric 3-(4,5-dimethylthiazol-2-yl)-2,5-diphenyltetrazolium bromide (MTT) dye reduction assay was used to determine cytotoxicity of the peptides against human keratinocyte cell line (HaCaT) and transformed human embryonic kidney cells (HEK293T). Both cell lines were purchased from American Type Culture Collection (ATCC). 10^4 cells per well in Dulbecco’s modified Eagle’s medium (DMEM/F12) supplemented with 10% fetal bovine serum (FBS, Invitrogen) were placed into 96-well plates and then cultured in the CO2-incubator (5% CO2, 37 °C). After the media were removed, the peptides were dissolved in 100 µL of the same medium and added to cell cultures at different final concentrations. 20 h later, 20 μL of MTT (5 mg/mL, Sigma) was added to each well, and the plates were incubated for 4 h at 37 °C. Then, the media were discarded and 100 µL DMSO-isopropanol mixture at a ratio of 1:1 (v/v) was added to each well to dissolve the crystallized formazan. The absorbance at 570 nm was measured by a microplate reader AF2200 (Eppendorf). An optical density in the wells containing cells cultured without the peptides was assumed to represent 100% cell viability. Two independent experiments were performed for each peptide.

HaCaT (keratinocytes) = experiment: MTT cytotoxicity; type: cell-based, human; settings: mean
Protocol: as §1

E. coli 1057 WT = experiment: microbe, parasite or virus in culture; type: cell-based, Escherichia coli; settings: MHB + 0.9% NaCl
[3] = test system: E. coli 1057 R2 (rpoS^Q3stop, macB^N470D); settings: MHB + 0.9% NaCl
Protocol: Minimum inhibitory concentrations (MIC) were determined by broth microdilution assay based on Clinical and Laboratory Standards Institute (CLSI) guidelines using BSA in the growth medium to minimize AMP nonspecific adsorption. Bacterial test cultures were grown in the Mueller-Hinton broth (MHB, Sigma) at 37 °C to mid-log phase and then diluted with the 2× MH medium supplemented with 1.8% NaCl (or without salt) so that to reach a final cell concentration of 10^6 CFU/mL. 50 µL of the obtained bacterial suspension were added to aliquots of 50 µL of the peptide solutions serially diluted with sterilized 0.1% bovine serum albumin (BSA) in 96-well flat-bottom polystyrene microplates (Eppendorf #0030730011). […] To verify MIC values, the respiratory activity of the bacteria was determined. Briefly, 5 µL of 0.5 mg/mL resazurin (Sigma) was added to the wells after 24 h (or after 48 h for M. smegmatis) of incubation, and the plate was incubated for additional 3 h. In some cases, MICs were determined in the Lysogeny Broth (LB) or Middlebrook 7H9 medium. The reduction of resazurin to resorufin was recorded. […] The results were expressed as the median values determined based on at least three independent experiments performed in triplicate.
Resistance induction experiments were performed using the previously described method. This approach allows for monitoring MIC values after each transfer. Briefly, on the first day, the overnight culture of the wild-type bacteria was diluted with the 2× MHB supplemented with 1.8% NaCl (or without salt) to reach a final cell concentration of 10^6 CFU/mL. 50 µL of the obtained bacterial suspension were added to aliquots of 50 µL of the peptide solutions serially diluted with the sterilized 0.1% BSA in 96-well flat-bottom polystyrene microplates. After incubation for 20 ± 2 h at 37 °C and 950 rpm, MICs were determined as described above. For each subsequent daily transfer, 2–4 μL of the inoculum taken from the first well containing a sub-inhibitory drug concentration was diluted with 2 mL of the fresh 2× MHB supplemented with 1.8% NaCl (or without salt). […] Multiple repeated passages in the presence of antimicrobial agents were performed for each bacterial strain during the experiment. Bacteria that grew at the highest concentrations of AMPs on the final day were passaged further 3 times on drug-free agar plates before determining the final MIC value.

Compound: RPPKPRPPHRPRPRPRPWFPPRFP [Rum-1[6-29]]
- Minimum inhibitory concentration MHB + 0.9% NaCl (E. coli BW25113): 16 to 32 µM
- Minimum inhibitory concentration MHB (E. coli BW25113): 4 µM
- fold change of MIC vs wild-type rumicidin-1 (E. coli BW25113): two-fold
- Protein synthesis inhibition [1]: 4 µM

Compound: CC[C@H](C)[C@H](NC(=O)CN)C(=O)NCC(=O)N[C@@H](C)C(=O)N[C@H](C(=O)N[C@@H](CC(C)C)C(=O)N[C@@H](CCCCN)C(=O)N[C@H](C(=O)N[C@@H](CC(C)C)C(=O)N[C@H](C(=O)N[C@H](C(=O)NCC(=O)N[C@@H](CC(C)C)C(=O)N1CCC[C@H]1C(=O)N[C@@H](C)C(=O)N[C@@H](CC(C)C)C(=O)N[C@H](C(=O)N[C@@H](CO)C(=O)N[C@@H](Cc1c[nH]c2ccccc12)C(=O)N[C@H](C(=O)N[C@@H](CCCCN)C(=O)N[C@@H](CCCNC(=N)N)C(=O)N[C@@H](CCCCN)C(=O)N[C@@H](CCCNC(=N)N)C(=O)N[C@@H](CCC(N)=O)C(=O)N[C@@H](CCC(N)=O)C(N)=O)[C@@H](C)CC)[C@@H](C)CC)[C@@H](C)O)[C@@H](C)O)C(C)C)C(C)C [Melittin]
- HEK293T cell viability ([2]; 0.25 µM): 101.366%
- HEK293T cell viability ([2]; 0.5 µM): 102.416%
- HEK293T cell viability ([2]; 1 µM): 98.73%
- HEK293T cell viability ([2]; 2 µM): 27.546%
- HEK293T cell viability ([2]; 4 µM): 9.889%
- HEK293T cell viability ([2]; 8 µM): 9.248%
- HEK293T cell viability ([2]; 16 µM): 9.026%
- HaCaT cell viability (HaCaT (keratinocytes); 0.25 µM): 102.196%
- HaCaT cell viability (HaCaT (keratinocytes); 0.5 µM): 104.998%
- HaCaT cell viability (HaCaT (keratinocytes); 1 µM): 106.041%
- HaCaT cell viability (HaCaT (keratinocytes); 2 µM): 106.484%
- HaCaT cell viability (HaCaT (keratinocytes); 4 µM): 67.714%
- HaCaT cell viability (HaCaT (keratinocytes); 8 µM): 4.039%
- HaCaT cell viability (HaCaT (keratinocytes); 16 µM): 2.958%
- HaCaT cell viability (HaCaT (keratinocytes); 32 µM): 4.046%
- MIC (E. coli 1057 WT): 8 µM
- MIC [3]: 16 µM

Compound: RGGRLCYCRRRFCVCVGR (Protegrin-1; UniProt P32194 131-148, looked up)
- MIC (E. coli 1057 WT): 0.25 µM
- MIC [3]: 0.25 µM

Compound: O=C(N[C@H](CO)[C@H](O)c1ccc([N+](=O)[O-])cc1)C(Cl)Cl [Chloramphenicol]
- MIC (E. coli 1057 WT; Escherichia coli, 1057WT, 24 h): 16 µM

Compound: RRLRPRRPRLPRPRPRPRPRPR [mini-ChBac7.5Nα]
- MIC [3]: > 32 µM

Compound: CN(C)[C@@H]1C(O)=C(C(N)=O)C(=O)[C@@]2(O)C(O)=C3C(=O)c4c(O)cccc4[C@@](C)(O)[C@H]3C[C@@H]12 [Tetracycline]
- MIC (E. coli 1057 WT; Escherichia coli, 1057WT, 24 h): 4 µM

Compound: CC1(C)S[C@@H]2[C@H](NC(=O)[C@H](N)c3ccccc3)C(=O)N2[C@H]1C(=O)O [Ampicillin]
- MIC (E. coli 1057 WT; Escherichia coli, 1057WT, 24 h): > 128 µM

Compound: CCC[C@@H]1C[C@@H](C(=O)N[C@@H]([C@H]2O[C@H](SC)[C@H](O)[C@@H](O)[C@H]2O)[C@H](C)Cl)N(C)C1 [Clindamycin]
- MIC (E. coli 1057 WT; Escherichia coli, 1057WT, 24 h): 128 µM

Compound: [H]/N=C(/N)N[C@H]1[C@H](O)[C@@H](O)[C@H](O[C@@H]2O[C@@H](C)[C@](O)(C=O)[C@H]2O[C@@H]2O[C@@H](CO)[C@H](O)[C@@H](O)[C@@H]2NC)[C@@H](N/C(N)=N\[H])[C@@H]1O [Streptomycin]
- MIC (E. coli 1057 WT; Escherichia coli, 1057WT, 24 h): 4 µM

Compound: PHRPRPRPRPWFPPRFP [Rum-1[13-29]]
- Minimum inhibitory concentration MHB + 0.9% NaCl (E. coli BW25113): > 256 µM
- Minimum inhibitory concentration MHB (E. coli BW25113): 32 µM
- Protein synthesis inhibition [1]: 64 µM

Compound: CN[C@@H]1[C@H](O)[C@H](NC)[C@H]2O[C@@]3(O)C(=O)C[C@@H](C)O[C@H]3O[C@@H]2[C@H]1O [Spectinomycin]
- MIC (E. coli 1057 WT; Escherichia coli, 1057WT, 24 h): 64 µM

Compound: NC[C@H]1O[C@H](O[C@H]2[C@H](O)[C@@H](O[C@H]3O[C@H](CO)[C@@H](O)[C@H](N)[C@H]3O)[C@H](N)C[C@@H]2N)[C@H](O)[C@@H](O)[C@@H]1O [Kanamycin]
- MIC (E. coli 1057 WT): 8 µM
- MIC [3]: 8 µM

Compound: RARRPRPPKPRPPHRPRPRPRP [Rum-1[1-22]]
- Minimum inhibitory concentration MHB + 0.9% NaCl (E. coli BW25113): 256 µM
- Minimum inhibitory concentration MHB (E. coli BW25113): 16 µM

Compound: Gentamycin
- MIC (E. coli 1057 WT): 2 µM
- MIC [3]: 2 µM

Compound: RARRPRPPKPRPPHRP [Rum-1[1-16]]
- Minimum inhibitory concentration MHB + 0.9% NaCl (E. coli BW25113): > 256 µM
- Minimum inhibitory concentration MHB (E. coli BW25113): 256 µM

Compound: RPPHRPRPRPRPWFPPRFP [Rum-1[11-29]]
- Minimum inhibitory concentration MHB + 0.9% NaCl (E. coli BW25113): 64 µM
- Minimum inhibitory concentration MHB (E. coli BW25113): 8 µM
- fold change of MIC vs wild-type rumicidin-1 (E. coli BW25113): ≥ 4 fold
- Protein synthesis inhibition [1]: 32 µM

Compound: CO/N=C(\C(=O)N[C@@H]1C(=O)N2C(C(=O)O)=C(CSc3nc(=O)c(=O)[nH]n3C)CS[C@H]12)c1csc(N)n1 [Ceftriaxone]
- MIC (E. coli 1057 WT; Escherichia coli, 1057WT, 24 h): 128 µM

Compound: CO[C@H]1/C=C/O[C@@]2(C)Oc3c(C)c(O)c4c(O)c(c(/C=N/N5CCN(C)CC5)c(O)c4c3C2=O)NC(=O)/C(C)=C\C=C\[C@H](C)[C@H](O)[C@@H](C)[C@@H](O)[C@@H](C)[C@H](OC(C)=O)[C@@H]1C [Rifampicin]
- MIC (E. coli 1057 WT; Escherichia coli, 1057WT, 24 h): 32 µM

Compound: RPRPRPRPWFPPRFP [Rum-1[15-29]]
- Minimum inhibitory concentration MHB + 0.9% NaCl (E. coli BW25113): > 256 µM
- Minimum inhibitory concentration MHB (E. coli BW25113): 32 µM
- Protein synthesis inhibition [1]: 256 µM

Compound: RPRPPKPRPPHRPRPRPRPWFPPRFP [Rum-1[4-29]]
- Minimum inhibitory concentration MHB + 0.9% NaCl (E. coli BW25113): 16 µM
- Minimum inhibitory concentration MHB (E. coli BW25113): 4 µM
- fold change of MIC vs wild-type rumicidin-1 (E. coli BW25113): two-fold
- Protein synthesis inhibition [1]: 4 µM
